The record followed here is paper PMC2841647 (PLoS ONE, 2010).

Several values for one entry are separate records, joined by “and”; a condition that tells them apart may be missing. Identical values can stand only once. Like-named read-outs stand apart in the source and are kept apart here. Where a SMILES comes first, the peptide text is derived from it. Bridges are numbered along the chain shown (N, C = ends).

In one data set the target is T1, human TrkB receptor (Homo sapiens, UniProt Q16620).
T1 construct: expressed in transfected cells
The data set can be described thus: KIRA-ELISA (TrkB tyrosine phosphorylation) in TetOn-rhTrkB CHO cells. The data set is classed as cell-based. The settings on record: for IC50 / ratio signal/background / EC50: TetOn-rhTrkB cells; for EC50: read-out: EC50, TrkB activation. The text has this:
(§1) The human recombinant TrkB receptor was fluorescently tagged at its C-terminus with the Enhanced cyan fluorescent protein (rhTrkB-ECFP) by cloning the full human TrkB sequence (kindly provided by G. M. Brodeur) into the pECFP-N1 expression vector (Clontech). For inducible expression, rhTrkB-ECFP was subcloned into the tetracycline-responsive (TetOn) vector pTRE2 (Clontech). Chinese Hamster Ovary cells stably expressing rhTrkB-ECFP (TetOn-rhTrkB cells), were produced by transfection of the pTRE2-rhTrkB-ECFP plasmid into CHO-K1 TetOn cells (Clontech) followed by clone selection in 0.25 mg/ml hygromycin B (Invitrogen) and 0.1 mg/ml geneticin (G418; Invitrogen). Resistant cells were selected based on both fluorescence intensity and KIRA-ELISA profile after an overnight incubation in presence of 1000 ng/ml doxycycline (Clontech). Cortical neurons were prepared and cultured from E16 mouse embryos as described previously. The nnr5 PC12-TrkA, nnr5 PC12-TrkB and nnr5 PC12-TrkC cells (kindly provided by M. V. Chao) are NGF non-responding mutant PC12 cells stably transfected with TrkA, TrkB and TrkC cDNA, respectively.
(§2) TrkB activity was quantified using the previously described KIRA-ELISA assay with slight modifications. Cortical neurons were seeded on polyornithin-coated flat-bottom 96-well culture plates (12×10^4 cells per well) and cultured eight days at 37°C in 5% CO2. TetOn-rhTrkB cells were seeded on flat-bottom 96-well culture plates (4×10^4 cells per well) and incubated overnight with 1000 ng/ml doxycycline (Figs. S1,S2) except when indicated. Fluorescence levels in TetOn-rhTrkB cells were verified before each assay. […] Assay was stopped by removing the medium on ice and membranes were solubilized using KIRA-ELISA solubilization buffer (NaCl 150 mM, Hepes 50 mM, Triton X-100 0.5%, thimerosal 0.01%, sodium orthovanadate 2 mM, supplemented with a cocktail of protease inhibitors) for 1 h at room temperature. Solubilized membranes were transferred for 2 h at room temperature onto ELISA microtiter plate (Nunc Maxisorp) pre-coated overnight at 4°C with appropriate antibodies [polyclonal anti-GFP (1∶5000, Clontech) for TetOn-rhTrkB, polyclonal anti-TrkB (1 µg/ml, Upstate) for cultured neurons and brain slices, for phosphorylation assays; monoclonal anti-GFP (1∶3000, Chemicon) for TetOn-rhTrkB, monoclonal anti-TrkB (1∶1000, BD Biosciences) for cultured neurons and brain slices, for total TrkB quantification]. […] Absorbance was read at 450 nm after addition of 3,3′,5′,5-tetramethyl-benzidine substrate (Sigma) and acidification with 1N hydrochloric acid.
(§3) Concentration-response and competition curves were obtained using an iterative least-squares method derived from that of Parker & Waud (1971). […] Concentration-response curves and Eadie-Hofstee plots were analyzed using two-way ANOVA. Significance over time in locomotor activity studies was given using two-way ANOVA followed by Bonferroni's post-hoc test. […] One-way ANOVA followed by post-hoc Dunnett's test was used to evaluate statistical significance compare to saline group in EPM and FST procedures. n represents the number of independent experiments.
(In general: In an ELISA, binding on a coated surface is turned into a signal by an enzyme label.)

Another data set has as its system nnr5 PC12 cells. The experiment in a line: Morphological analysis of toxicity / cell death. The class given is cell-based. The settings on record: 72 hours after exposure to 10 µM.
For a further data set, the system named is nnr5 PC12-TrkB cells. The note with it: 48 h.
Data set [1] concerns the target T2, native TrkB receptors in cortical neurons (Mus musculus, UniProt P15209).
T2 construct: cortical neurons naturally express TrkB receptors; endogenous in cells; host or cells: primary cortical neurons from E16 mouse embryos
The data set can be described thus: KIRA-ELISA (TrkB tyrosine phosphorylation) in primary cortical neurons. The data set is classed as cell-based. The settings on record: for EC50: read-out: EC50, TrkB activation.
Description: as §1, §2, §3

The subject of data set [2] is mice. The data set can be described thus: Elevated plus-maze (EPM). The settings on record: vs saline. The class given is in vivo, mouse. The method, then: (§4) Mice were treated as described above before being subjected to behavioral studies. Predictive estimation for anxiolytic properties of tat-cyclotraxin-B was assessed using open field and elevated plus-maze (EPM). Antidepressant-like action of tat-cyclotraxin-B was assessed with the forced-swim test (FST). Effects of acute treatment with tat-cyclotraxin-B on spontaneous locomotion, exploration and reactivity to a novel open field was assessed in plexiglas activity chambers (Med Associates; 45×45×31 cm). Mice were placed into the center of the open field, and activity was recorded for 30 min. Testing took place under bright ambient light conditions to increase the anxiety component of the center areas of the field (defined as the central 15×15 cm portion). Mice subjected to EPM received a double 90-interval i.v. injection of tat-cyclotraxin-B or saline buffer before being placed on the platform of the EPM and assessed for 5 min (26×5×36 cm). The diazepam control group consisted of saline buffer double-treated mice that further received a 30-min i.p. injection of diazepam (1 mg/kg). Mice were assessed for number of entries and amount of time spent in open versus closed arms. The FST procedure was applied to treated mice as described by Porsolt et al. (see ref. [60]). Mice were dropped individually into glass cylinder (height, 25 cm; diameter, 10 cm) containing 10 cm water height, maintained at 23–25°C. Animals were tested for a total of 6 min. The total time of swimming, the number of climbing attempts and the time of immobility was recorded during the last 4 min of the session, after 2 min of habituation. The paroxetine control group consisted of saline buffer double-treated mice that further received a 30-min i.p. injection of paroxetine (2 mg/kg). Behaviors were recorded on videotape and scored blind.

Data set [3] relates to mice. The experiment in a line: Forced swim test (FST). The data set is classed as in vivo, mouse. The note with it: acute treatment, vs saline. The method, then: as §4
Another data set has as its target T3, TrkB in brain slices (Mus musculus, UniProt P15209).
T3 construct: KIRA-ELISA analysis of brain TrkB receptors from mice; from tissue; host or cells: adult Swiss mouse brain, 300-µm coronal slices
The data set can be described thus: KIRA-ELISA in brain slices incubated with peptide. The data set is classed as cell-based. The note with it: peptide added to brain slices. The method, then:
TrkB activity was quantified using the previously described KIRA-ELISA assay with slight modifications. Cortical neurons were seeded on polyornithin-coated flat-bottom 96-well culture plates (12×10^4 cells per well) and cultured eight days at 37°C in 5% CO2. TetOn-rhTrkB cells were seeded on flat-bottom 96-well culture plates (4×10^4 cells per well) and incubated overnight with 1000 ng/ml doxycycline (Figs. S1,S2) except when indicated. Fluorescence levels in TetOn-rhTrkB cells were verified before each assay. […] Solubilized membranes were transferred for 2 h at room temperature onto ELISA microtiter plate (Nunc Maxisorp) pre-coated overnight at 4°C with appropriate antibodies [polyclonal anti-GFP (1∶5000, Clontech) for TetOn-rhTrkB, polyclonal anti-TrkB (1 µg/ml, Upstate) for cultured neurons and brain slices, for phosphorylation assays; monoclonal anti-GFP (1∶3000, Chemicon) for TetOn-rhTrkB, monoclonal anti-TrkB (1∶1000, BD Biosciences) for cultured neurons and brain slices, for total TrkB quantification]. […] Absorbance was read at 450 nm after addition of 3,3′,5′,5-tetramethyl-benzidine substrate (Sigma) and acidification with 1N hydrochloric acid.

Setting [4] is: TrkB + p75NTR co-expressing cortical neurons.

T2 sequence (P15209 32-821): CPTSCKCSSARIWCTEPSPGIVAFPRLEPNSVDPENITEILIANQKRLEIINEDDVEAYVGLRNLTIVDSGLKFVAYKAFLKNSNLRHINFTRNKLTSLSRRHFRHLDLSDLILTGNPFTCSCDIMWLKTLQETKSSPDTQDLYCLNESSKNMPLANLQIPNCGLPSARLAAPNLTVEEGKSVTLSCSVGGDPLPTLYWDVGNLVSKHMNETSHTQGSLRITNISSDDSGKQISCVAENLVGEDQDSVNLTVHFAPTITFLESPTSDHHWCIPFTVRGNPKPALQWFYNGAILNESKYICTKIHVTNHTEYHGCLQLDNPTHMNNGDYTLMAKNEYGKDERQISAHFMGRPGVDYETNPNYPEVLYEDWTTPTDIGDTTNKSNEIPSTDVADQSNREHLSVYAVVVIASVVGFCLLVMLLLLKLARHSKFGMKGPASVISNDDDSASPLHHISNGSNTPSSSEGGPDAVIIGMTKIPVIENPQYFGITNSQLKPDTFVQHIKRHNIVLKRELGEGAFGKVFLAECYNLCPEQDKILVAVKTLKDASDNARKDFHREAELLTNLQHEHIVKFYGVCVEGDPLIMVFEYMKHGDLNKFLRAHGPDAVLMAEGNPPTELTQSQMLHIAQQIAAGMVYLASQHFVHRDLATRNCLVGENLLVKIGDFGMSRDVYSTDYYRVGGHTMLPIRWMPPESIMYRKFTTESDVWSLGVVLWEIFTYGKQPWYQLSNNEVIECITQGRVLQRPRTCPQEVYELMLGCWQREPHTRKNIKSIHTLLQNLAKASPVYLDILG
T1 sequence (Q16620 32-822): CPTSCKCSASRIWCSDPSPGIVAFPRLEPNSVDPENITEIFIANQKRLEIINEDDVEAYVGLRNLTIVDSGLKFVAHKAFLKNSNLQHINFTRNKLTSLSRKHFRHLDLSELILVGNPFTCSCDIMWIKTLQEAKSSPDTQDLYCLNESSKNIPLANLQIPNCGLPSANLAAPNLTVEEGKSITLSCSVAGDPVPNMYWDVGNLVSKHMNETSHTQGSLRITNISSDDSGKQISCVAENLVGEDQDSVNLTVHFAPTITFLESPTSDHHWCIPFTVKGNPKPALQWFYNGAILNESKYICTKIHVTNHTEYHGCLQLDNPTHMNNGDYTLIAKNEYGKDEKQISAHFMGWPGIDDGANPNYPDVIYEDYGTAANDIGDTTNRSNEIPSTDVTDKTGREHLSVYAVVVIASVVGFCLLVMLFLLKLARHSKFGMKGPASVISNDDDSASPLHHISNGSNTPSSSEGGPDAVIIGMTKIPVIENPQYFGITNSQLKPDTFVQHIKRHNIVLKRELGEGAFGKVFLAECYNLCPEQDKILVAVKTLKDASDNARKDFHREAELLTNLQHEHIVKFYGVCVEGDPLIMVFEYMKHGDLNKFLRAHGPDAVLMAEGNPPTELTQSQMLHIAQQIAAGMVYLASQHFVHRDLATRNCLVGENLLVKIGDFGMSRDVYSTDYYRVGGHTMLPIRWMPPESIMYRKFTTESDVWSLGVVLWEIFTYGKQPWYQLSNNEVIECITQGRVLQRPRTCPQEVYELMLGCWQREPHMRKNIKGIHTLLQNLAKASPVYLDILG
T3 sequence (P15209 32-821): as the sequence (P15209 32-821) above

In the case of `COC(=O)[C@@]1(O)C[C@H]2O[C@]1(C)n1c3ccccc3c3c4c(c5c6ccccc6n2c5c31)C(=O)NC4` [K252a, reference compound], on human TrkB receptor (KIRA-ELISA, BDNF 4 nM, TetOn-rhTrkB cells and cortical neurons (Fig. S2)), the “reversal of BDNF signal” value is recorded as “fully reversed”.

For orientation: IC50 means the concentration at which inhibition is half-maximal. With `CSCC[C@@H]1NC(=O)[C@@H]2CCCN2C(=O)[C@H](CC(N)=O)NC(=O)[C@@H](N)CSSC[C@@H](C(=O)O)NC(=O)CNC(=O)[C@H](CCC(=O)O)NC(=O)[C@H](CCCCN)NC(=O)[C@H]([C@@H](C)O)NC(=O)[C@H](Cc2ccc(O)cc2)NC(=O)CNC1=O` [cyclotraxin-B] (H-CNPMGYTKEGC-OH; disulfide 1-11; N-terminus and C-terminus assumed), the cell death result with nnr5 PC12 cells was “no cell death”. For the same molecule, the IC50 on human TrkB receptor (with BDNF, read-out: IC50, inhibition of BDNF-induced TrkB activity) came out at 300 ± 70 pM; at human TrkB receptor (without BDNF, read-out: IC50, BDNF-independent (basal) TrkB activity), 280 ± 80 pM; in the data set on nnr5 PC12-TrkB cells it was 12.2 ± 8.5 pM; in data set [1] (cortical neurons, with BDNF, read-out: IC50, inhibition of BDNF-induced TrkB activity), 67.1 ± 18.9 pM; in data set [1] (neurons, without BDNF, read-out: IC50, BDNF-independent (basal) TrkB activity), 65.7 ± 21.7 pM.

For the molecule `C[C@@H]1C[C@H]2[C@@H]3CCC4=CC(=O)C=C[C@]4(C)[C@@]3(F)[C@@H](O)C[C@]2(C)[C@@]1(O)C(=O)CO` [dexamethasone, reference compound], in data set [1] (cortical neurons, 1 µM, 2 h), the “TrkB phosphorylation (indirect activation)” value is given as “significantly triggered”.

Regarding `CN1C(=O)CN=C(c2ccccc2)c2cc(Cl)ccc21` [diazepam, reference compound], in the data set with mice [2], the “EPM number of entries in open arms” value is listed as “significantly increased” and the “EPM time spent in open arms” value was “significantly increased”.

Consider `Fc1ccc([C@@H]2CCNC[C@H]2COc2ccc3c(c2)OCO3)cc1` [paroxetine, reference compound], for which, in the data set on mice [3], the FST climbing attempts result is given as “increased” and the “FST time of immobility” value is “significant decreased”.

As to NGF: neurotrophin, the KIRA-ELISA signal result (with human TrkB receptor (recombinant cells); in data set [1] (neuronal cells)) was “did not produce any signal” each time.

What is called EC50 is the concentration at which the effect is half-maximal. Regarding NT-3: neurotrophin, the ratio signal/background in the data set with human TrkB receptor was found to be 3.8; in data set [1] (setting [4]), 1.7. The EC50 with human TrkB receptor was 702 ± 134 pM; in data set [1] (neuronal TrkB receptors), 716 ± 167 pM. Further, the “agonist behaviour at TrkB” value in data set [1] (setting [4]) was “partial agonist”.

Take “YGRKKRRQRRR [tat-empty, reference compound]”: in the data set with TrkB in brain slices, the “TrkB inhibition in brain slices” value is “did not produce any effect”.

B1: BDNF: neurotrophin, cognate ligand of TrkB; mature recombinant human BDNF (Peprotech) (protein, UniProt P23560 19-247, looked up)
Neurotrophic factor BDNF …: APMKEANIRGQGGLAYPGVRTHGTLESVNGPKAGSRGLTSLADTFEHVIEELLDEDQKVRPNEENNKDADLYTSRVMLSSQVPLEPPLLFLLEEYKNYLDAANMSMRVRRHSDPARRGELSVCDSISEWVTAADKKTAVDMSGGTVTVLEKVPVSKGQLKQYFYETKCNPMGYTKEGCRGIDKRHWNSQCRTTQSYVRALTMDSKKRIGWRFIRIDTSCVCTLTIKRGR
As to B1, the ratio signal/background in the data set with human TrkB receptor worked out at 3.94. Also, the EC50 with human TrkB receptor (agonist alone) is 672 pM and 614 pM; in data set [1] (cortical neurons, agonist alone), 186 pM and 208 pM.
